Where two headings read alike, the source gives them in different places. Where a SMILES comes first, the peptide text is derived from it.
How the values were obtained:
[1] = tested on: striatum levels of DA, DOPAC, HVA, 5-HT, 5-HIAA, and NE; assay: Striatum neurochemistry (RP-HPLC EC) after repeated intranasal administration; assay type: in vivo, normal Fischer 344 rats; details: for Turnover ratio 5-H1AA/5-HT / Turnover ratio (HVA + DOPAC)/DA / Turnover ratio DOPAC/DA / Turnover ratio HVA/DA / 5-HIAA / 5-HT / DA / DOPAC / HVA / NE: 5 days a week for 3 weeks, combined left and right striatum, mean; for 5-HIAA / 5-HT / DA / DOPAC / HVA / NE: wet tissue weight
Experimental: (§1) Groups of 12, 3 month old Fischer 344 rats were intranasally dosed 50 microliters (4 single 12.5 microliter administrations, 2 per nare, 5 minutes between each nare administration) of either vehicle, 1.1 mg/mL, or 3.5 mg/mL of AV6403 [Leu-Ala-Pro-Ala-Glu-Asp-NH2] (SEQ ID NO: 1) once a day for 5 days a week, for 3 weeks (5 consecutive days of dosing, 2 off days, repeated total of 3 times). Following day 21, rats were euthanized and brain tissue was recovered and sections removed and weighed for neurochemical analysis by Reverse-Phase High Pressure Liquid Chromatography Electrochemical detection (RP-HPLC EC).
Dopamine [DA], its major metabolites 3,4-Dihydroxy-Phenylacetic Acid (DOPAC) and Homovanillic Acid (HVA), 5-hydroxytryptamine (5-HT, serotonin), its metabolite 5-hydroxyindoleacetic acid (5-HIAA), and norepinephrine (NE) were measured in the striatum and substantia nigra (SN) for each group. In the striatum [TABLE 1], 1.1 mg/mL dosing of AV6403 led to a 20% and 25% reduction of DA and HVA levels [FIG. 1A-FIG. 1C], respectively, resulting in an increase in dopamine turnover (22% [DOPAC/DA] and 16% [[(HVA+DOPAC)/DA]), relative to saline vehicle treated rats [FIG. 2A-FIG. 2B]. […] NE levels were reduced in the striatum with about a 36% reduction for AV6403 1.1 mg/mL dosage versus vehicle [TABLE 1].
as §1, with “1.2” for “1.1”, “3.6” for “3.5”, “AV7624 [Glu-Ala-Pro-Phe-Glu-Asp-NH2]” for “AV6403 [Leu-Ala-Pro-Ala-Glu-Asp-NH2] (SEQ ID NO: 1)”, “RP-HPLC EC.” for “Reverse-Phase High Pressure Liquid Chromatography Electrochemical detection (RP-HPLC EC).”
DA, DOPAC, HVA, 5-HT, 5-HIAA, and NE were measured in the striatum and SN for each group. In the striatum [TABLE 5], 3.6 mg/mL dosing of AV7624 led to an approximate 18%, 39%, and 30% reduction of DA, DOPAC, and HVA levels [FIG. 6A-FIG. 6C], respectively, resulting in an about 18% decrease in dopamine turnover ([DOPAC/DA] and [(HVA+DOPAC)/DA]), relative to saline vehicle treated rats [FIG. 7A-FIG. 7B]. […] NE levels were reduced in the striatum in a dose dependent manner, with about a 32% reduction for the AV7624 3.6 mg/mL dosage versus vehicle [TABLE 5]

[2] = tested on: substantia nigra levels of DA, DOPAC, HVA, 5-HT, 5-HIAA, and NE; assay: Substantia nigra neurochemistry (RP-HPLC EC) after repeated intranasal administration; assay type: in vivo, normal Fischer 344 rats; details: for Turnover ratio 5-HIAA/5-HT / Turnover ratio (HVA + DOPAC)/DA / Turnover ratio DOPAC/DA / Turnover ratio HVA/DA / 5-HIAA / 5-HT / DA / DOPAC / HVA / NE: 5 days a week for 3 weeks, combined left and right substantia nigra, mean; for 5-HIAA / 5-HT / DA / DOPAC / HVA / NE: wet tissue weight
Experimental: as §1
In the SN [TABLE 3], treatment of AV6403 led to about a 13% increase in DOPAC and a 11% reduction of HVA, depending on the dosage, [FIG. 4A-FIG. 4C] resulting in an increase in dopamine turnover (20% [DOPAC/DA] for 3.5 mg/mL dosage; 23% [(HVA+DOPAC)/DA] for 1.1 mg/mL) relative to saline vehicle treated rats [FIG. 5A-FIG. 5B]. Treatment with 1.1 mg/mL AV6403 decreased 5-HT by 10% in the SN, resulting in a 16% increase in serotonin turnover [5-HIAA/5-HT] [TABLE 4]. The higher dosage (3.5 mg/mL AV6403) increased NE levels in the SN by about 23% versus vehicle treated rats, respectively [TABLE 3].
as §1, with “1.2” for “1.1”, “3.6” for “3.5”, “AV7624 [Glu-Ala-Pro-Phe-Glu-Asp-NH2]” for “AV6403 [Leu-Ala-Pro-Ala-Glu-Asp-NH2] (SEQ ID NO: 1)”, “RP-HPLC EC.” for “Reverse-Phase High Pressure Liquid Chromatography Electrochemical detection (RP-HPLC EC).”
In the SN [TABLE 7], treatment with 3.6 mg/mL AV7624 led to about a 23%, 22%, and a 6% decrease in DA, DOPAC, and HVA [FIG. 9A-FIG. 9C], relative to saline vehicle treated rats, with minor effects on dopamine turnover [FIG. 10A-FIG. 10B]. Treatment with 3.6 mg/mL AV7624 decreased 5-HT by 20% and 5-HIAA by about 18% in the SN [TABLE 7], resulting in a minor effect on serotonin turnover [TABLE 8]. NE levels in the SN were decreased (17% and 13%) by both dosages (1.2 mg/mL and 3.6 mg/mL) versus vehicle treated rats, respectively [TABLE 7].

[3] = Plasma levels by LC-MS/MS after subcutaneous administration; assay type: in vivo, rat; details: for Cmax: rat, plasma, sc, read-out: maximum plasma levels
[4] = rat, in vivo, sc, 100 mg/kg
MN9D neuronal cells [5] = assay: LIVE/DEAD and JC-1 assays for toxicity and loss of mitochondrial potentials; details: 100 nM, 1 and 3 hours post treatment
Experimental: (§2) Testing involved permutations of size and diversifying amino acid sequence at each residue position. Sequence design began with Proline-Proline-Glutamate-Alanine-Proline-Alanine-Glutamate-Aspartate-Arginine-Serine-Leucine-NH2. […] These properties were tested using the dopaminergic MN9D neuronal cell line. Each candidate peptide sequence was dissolved in citrate buffer and added to MN9D cells (Choi et al., 1992) that were cultured in Dulbecco's Modified Eagle's Medium [DMEM (containing pyridoxol HCl); Sigma, St. Louis, MO] supplemented with 10% Fetal Bovine serum (HyClone, Logan, UT), 50 U/ml penicillin and streptomycin to a final 100 nM concentration. Using LIVE/DEAD and JC-1 assays in MN9D neuronal cells, individual library sequences were measured for toxicity and loss of mitochondrial potentials at 1 and 3 hours post treatment. […] The remaining sequences were then tested for their ability to provide protection against neurotoxins rotenone, 1-methyl-4-phenylpyridinium (MPP+), and trichloromethyl-1,2,3,4-tetrahydro-β-carboline (TaClo).

MN9D neuronal cells [6] = assay: Protection of mitochondrial potentials against rotenone, MPP+ and TaClo-induced cytotoxicity; assay type: cell-based; details: 100 nM pretreatment, 1, 3, 12, 24 hours
Experimental: as §2

[7] = 1.1 mg/mL intranasal, striatum, relative to saline vehicle treated rats
[8] = 1.1 mg/mL repeated intranasal, striatum, relative to saline treated rats
[9] = SN, depending on the dosage, relative to saline vehicle treated rats

**Q.** Which results are given for `CC(C)C[C@H](N)C(=O)N[C@@H](C)C(=O)N1CCC[C@H]1C(=O)N[C@@H](C)C(=O)N[C@@H](CCC(=O)O)C(=O)N[C@@H](CC(=O)O)C(N)=O` [AV6403, Leu-Ala-Pro-Ala-Glu-Asp-NH2] (H-LAPAED-NH2; N-terminus assumed)?
**A.** increase in dopamine turnover [(HVA+DOPAC)/DA] [1, 7]: 16%; increase in dopamine turnover [DOPAC/DA] [1, 7]: 22%; reduction of DA levels [1, 7]: 20%; reduction of HVA levels [1, 7]: 25%; reduction of NE levels ([1]; 1.1 mg/mL intranasal, striatum, versus vehicle): ~36%; increase in turnover [5-HIAA/5-HT] [1, 8]: 19%; reduction of 5-HIAA [1, 8]: ~19%; reduction of 5-HT [1, 8]: ~32%; Turnover ratio 5-H1AA/5-HT ([1]; 1.1 mg/ml intranasal): 1.28; Turnover ratio (HVA + DOPAC)/DA ([1]; 1.1 mg/ml intranasal): 0.36; Turnover ratio DOPAC/DA ([1]; 1.1 mg/ml intranasal): 0.28; Turnover ratio HVA/DA ([1]; 1.1 mg/ml intranasal): 0.08; 5-HIAA ([1]; 1.1 mg/ml intranasal): 326 ng/g; 5-HT ([1]; 1.1 mg/ml intranasal): 257 ng/g; DA ([1]; 1.1 mg/ml intranasal): 9425 ng/g; DOPAC ([1]; 1.1 mg/ml intranasal): 2618 ng/g; HVA ([1]; 1.1 mg/ml intranasal): 699 ng/g; NE ([1]; 1.1 mg/ml intranasal): 45 ng/g; changes in DA turnover ([1]; 3.5 mg/mL intranasal, striatum): minor changes; increase of striatal DA levels ([1]; 3.5 mg/mL intranasal, striatum): 8%; increase of striatal DOPAC levels ([1]; 3.5 mg/mL intranasal, striatum): 11%; Turnover ratio 5-H1AA/5-HT ([1]; 3.5 mg/ml intranasal): 1.11; Turnover ratio (HVA + DOPAC)/DA ([1]; 3.5 mg/ml intranasal): 0.31; Turnover ratio DOPAC/DA ([1]; 3.5 mg/ml intranasal): 0.23; Turnover ratio HVA/DA ([1]; 3.5 mg/ml intranasal): 0.08; 5-HIAA ([1]; 3.5 mg/ml intranasal): 437 ng/g; 5-HT ([1]; 3.5 mg/ml intranasal): 393 ng/g; DA ([1]; 3.5 mg/ml intranasal): 12475 ng/g; DOPAC ([1]; 3.5 mg/ml intranasal): 2922 ng/g; HVA ([1]; 3.5 mg/ml intranasal): 935 ng/g; NE ([1]; 3.5 mg/ml intranasal): 66 ng/g; change of 5-HT, 5-HIAA and turnover ([1]; higher dosage (3.5 mg/mL) intranasal, striatum, relative to saline treated rats): small increases; decrease of 5-HT ([2]; 1.1 mg/mL intranasal, SN): 10%; increase in serotonin turnover [5-HIAA/5-HT] ([2]; 1.1 mg/mL intranasal, SN): 16%; increase in dopamine turnover [(HVA+DOPAC)/DA] ([2]; 1.1 mg/mL intranasal, SN, relative to saline vehicle treated rats): 23%; Turnover ratio 5-HIAA/5-HT ([2]; 1.1 mg/ml intranasal): 0.58; Turnover ratio (HVA + DOPAC)/DA ([2]; 1.1 mg/ml intranasal): 0.37; Turnover ratio DOPAC/DA ([2]; 1.1 mg/ml intranasal): 0.22; Turnover ratio HVA/DA ([2]; 1.1 mg/ml intranasal): 0.15; 5-HIAA ([2]; 1.1 mg/ml intranasal): 552 ng/g; 5-HT ([2]; 1.1 mg/ml intranasal): 1014 ng/g; DA ([2]; 1.1 mg/ml intranasal): 1122 ng/g; DOPAC ([2]; 1.1 mg/ml intranasal): 232 ng/g; HVA ([2]; 1.1 mg/ml intranasal): 102 ng/g; NE ([2]; 1.1 mg/ml intranasal): 554 ng/g; increase in dopamine turnover [DOPAC/DA] ([2]; 3.5 mg/mL intranasal, SN, relative to saline vehicle treated rats): 20%; increase of NE levels ([2]; 3.5 mg/mL intranasal, SN, versus vehicle treated rats): about 23%; Turnover ratio 5-HIAA/5-HT ([2]; 3.5 mg/ml intranasal): 0.54; Turnover ratio (HVA + DOPAC)/DA ([2]; 3.5 mg/ml intranasal): 0.34; Turnover ratio DOPAC/DA ([2]; 3.5 mg/ml intranasal): 0.24; Turnover ratio HVA/DA ([2]; 3.5 mg/ml intranasal): 0.11; 5-HIAA ([2]; 3.5 mg/ml intranasal): 546 ng/g; 5-HT ([2]; 3.5 mg/ml intranasal): 1050 ng/g; DA ([2]; 3.5 mg/ml intranasal): 1096 ng/g; DOPAC ([2]; 3.5 mg/ml intranasal): 253 ng/g; HVA ([2]; 3.5 mg/ml intranasal): 113 ng/g; NE ([2]; 3.5 mg/ml intranasal): 644 ng/g; increase in DOPAC [2, 9]: ~13%; reduction of HVA [2, 9]: 11%; plasma lifetime as compared to the extracellular brain levels ([3]; 30 and 100 mg/kg s.c.): longer lifetime; time of maximum plasma levels post administration ([3]; 30 and 100 mg/kg s.c.): 20 to 40 min; Cmax ([3]; 30 mg/kg s.c.): 3500 ng/mL; Cmax ([3]; 100 mg/kg s.c.): 6000 ng/mL; half-life [4]: 50 to 60 min

**Q.** With `C[C@H](NC(=O)[C@@H]1CCCN1C(=O)[C@H](C)NC(=O)[C@@H](N)CCC(=O)O)C(=O)N[C@@H](CCC(=O)O)C(=O)N[C@@H](CC(=O)O)C(N)=O` [SEQ ID NO: 11, Glutamate-Alanine-Proline-Alanine-Glutamate-Aspartate-NH2] (H-EAPAED-NH2; N-terminus assumed) as the compound, how does the toxicity (MN9D neuronal cells [5]) read?
**A.** The toxicity was “low toxicity”.

**Q.** What about the “protection against neurotoxins (rotenone, MPP+, TaClo)” value (MN9D neuronal cells [6]) of the same compound?
**A.** Its value is “protection against neurotoxin exposure at all time points measured”.
